Assay results reported in ChEMBL document CHEMBL5252563, “Structure-activity relationship studies of anti-bunyaviral cap-dependent endonuclease inhibitors” (Bioorg Med Chem Lett, 2023).

Assays:
Junin virus [1] = assay: Antiviral activity against Junin virus; assay type: functional, organism-based; details: Mammarenavirus juninense
[2] = test system: Mammarenavirus choriomeningitidis; assay: Antiviral activity against Lymphocytic choriomeningitis virus; assay type: functional, organism-based
Junin virus [3] = assay: Potency index, ratio of ribavirin EC50 to test compound EC50 for antiviral activity against Junin virus; assay type: functional, Mammarenavirus juninense
[4] = Metabolic stability in human liver microsomes; assay type: ADME, Microsome
[5] = Bioavailability in rat at 2 umol/kg, po or 1 umol/kg, iv administered as cassette dose; assay type: ADME, organism-based; details: in vivo, at 2 µmol/kg
[6] = Metabolic stability in rat liver microsomes; assay type: ADME, Microsome
[7] = test system: Mammarenavirus choriomeningitidis; assay: Potency index, ratio of ribavirin EC50 to test compound EC50 for antiviral activity against Lymphocytic choriomeningitis virus; assay type: functional
[8] = Elimination half-life in rat at 2 umol/kg, po or 1 umol/kg, iv administered as cassette dose; assay type: ADME, organism-based; details: in vivo, dose 2 µmol/kg, read-out: LambdaZ (converted)
[9] = Unbound fraction in rat serum at 2 umol/kg, po or 1 umol/kg, iv administered as cassette dose; assay type: ADME, organism-based; details: at 2 µmol/kg
[10] = AUC in rat at 1 umol/kg, iv administered as cassette dose; assay type: ADME, organism-based; design: dose 1 µmol/kg, route iv; details: in vivo

SMILES	EC50 (Junin virus [1])	EC50 [2]	also measured
COCCN1CN(C2c3ccccc3CCc3ccccc32)n2cc(C(=O)O)c(=O)c(O)c2C1=O	5 nM	5.3 nM	
Cc1ccc2c(c1)C(N1CN(C(C)C)C(=O)c3c(O)c(=O)c(C(=O)O)cn31)c1cc(C)ccc1CC2	176 nM	100 nM	
CCN(CC)CCN1CN(C2c3ccccc3CCc3ccccc32)n2cc(C(=O)O)c(=O)c(O)c2C1=O	> 1000 nM	> 1000 nM	
CC(C)N1CN(Cc2ccccc2-c2ccccc2)n2cc(C(=O)O)c(=O)c(O)c2C1=O	437 nM	499 nM	
O=C(Nc1nnn[nH]1)c1cn2c(c(O)c1=O)C(=O)N(CC1CC1)CN2C1c2ccccc2CCc2ccccc21	404 nM	284 nM	
O=C(NO)c1cn2c(c(O)c1=O)C(=O)N(CC1CC1)CN2C1c2ccccc2CCc2ccccc21	120 nM	109 nM	
O=C(O)c1cn2c(c(O)c1=O)C(=O)N(CC1CCCC1)CN2C1c2ccccc2CCc2ccccc21	25 nM	17 nM	
Cc1cccc2c1CCc1c(C)cccc1C2N1CN(C(C)C)C(=O)c2c(O)c(=O)c(C(=O)O)cn21	3.1 nM	1.7 nM	
CCN1CN(C2c3ccccc3CCc3ccccc32)n2cc(C(=O)O)c(=O)c(O)c2C1=O	3.3 nM	6.2 nM	
CC(C)N1CN(C2c3ccccc3CCc3ccccc32)n2cc(C(=O)O)c(=O)c(O)c2C1=O	2.4 nM	4.5 nM	Ratio EC50 (Junin virus [3]): 1000; Stability [4]: 107%; bioavailability [5]: 10.1%; Stability [6]: 81.8%; Ratio EC50 [7]: 1000; half-life [8]: 2 h; fraction unbound [9]: 0.00293; AUC [10]: 0.928 µM·h
CC(C)N1CN(C2c3ccccc3CSc3ccccc32)n2cc(C(=O)O)c(=O)c(O)c2C1=O (stereo not drawn)	3.6 nM	8 nM	Ratio EC50 (Junin virus [3]): 1000; Ratio EC50 [7]: 1000
COC(=O)c1cn2c(c(O)c1=O)C(=O)N(CC1CC1)CN2C1c2ccccc2CCc2ccccc21	271 nM	305 nM	
O=C(O)c1cn2c(c(O)c1=O)C(=O)N(C1CC1)CN2C1c2ccccc2CCc2ccccc21	13.4 nM	7.8 nM	
O=C(O)c1cn2c(c(O)c1=O)C(=O)N(CC1CC1)CN2C1c2ccccc2CCc2ccccc21	5.8 nM	4.1 nM	Stability [4]: 100%; bioavailability [5]: 8.2%; Stability [6]: 95.3%; half-life [8]: 1.5 h; fraction unbound [9]: 0.0136; AUC [10]: 1.47 µM·h
CN1CN(C2c3ccccc3CCc3ccccc32)n2cc(C(=O)O)c(=O)c(O)c2C1=O	9.2 nM	24 nM	
O=C(O)c1cn2c(c(O)c1=O)C(=O)N(CC1CCCCC1)CN2C1c2ccccc2CCc2ccccc21	20 nM	15 nM	
Cc1ccc2c(c1)CCc1cc(C)ccc1C2N1CN(C(C)C)C(=O)c2c(O)c(=O)c(C(=O)O)cn21	34 nM	13 nM	
O=C1c2c(O)c(=O)c(-c3noc(=O)[nH]3)cn2N(C2c3ccccc3CCc3ccccc32)CN1CC1CC1	189 nM	119 nM	
O=C1c2c(O)c(=O)c(-c3nnn[nH]3)cn2N(C2c3ccccc3CCc3ccccc32)CN1CC1CC1	> 1000 nM	127 nM	
CC(C)N1CN(Cc2ccccc2)n2cc(C(=O)O)c(=O)c(O)c2C1=O	> 1000 nM	> 1000 nM	
NC(=O)c1ncn([C@@H]2O[C@H](CO)[C@@H](O)[C@H]2O)n1 [RIBAVIRIN]	2500 nM	3500 nM	
